From US20050009792A1, “(20S)-1alpha-hydroxy-2-methylene-19-nor-vitamin D3 and its uses” (priority 2003, published 2005)

Key:
[1] = molecular target: T1, vitamin D pig intestinal nuclear receptor (Sus scrofa, UniProt A3RGC1); conditions: Ostrem et al. J. Biol. Chem. 262, 14164-14171, 1987; cited from earlier work
T1 construct: from tissue; host or cells: pig intestine (nuclear receptor preparation)
T1 sequence (A3RGC1 1-427): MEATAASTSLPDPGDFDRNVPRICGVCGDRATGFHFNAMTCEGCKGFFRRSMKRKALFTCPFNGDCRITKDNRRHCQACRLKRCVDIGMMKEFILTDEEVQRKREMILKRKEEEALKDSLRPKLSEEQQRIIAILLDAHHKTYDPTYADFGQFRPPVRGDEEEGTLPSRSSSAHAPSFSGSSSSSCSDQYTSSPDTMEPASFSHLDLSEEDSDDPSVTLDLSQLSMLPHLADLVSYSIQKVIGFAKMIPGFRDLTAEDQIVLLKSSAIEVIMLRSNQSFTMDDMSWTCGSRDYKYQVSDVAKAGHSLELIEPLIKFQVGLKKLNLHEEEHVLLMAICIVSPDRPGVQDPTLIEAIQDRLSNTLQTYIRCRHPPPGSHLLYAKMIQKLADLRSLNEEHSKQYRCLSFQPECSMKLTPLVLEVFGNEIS

[2] = test system: intestinal calcium transport; test: Intestinal calcium transport in rats on low calcium diet; format: in vivo, Sprague-Dawley rats; conditions: for Ca transport S/M (mean ± SEM): daily for 7 days, male weanling rats, 0.02% Ca diet
Description: Intestinal calcium transport was carried out as described by Penman et al (Biochemistry 29, 190-196,1990).
(§1) Male, weanling Sprague-Dawley rats were placed on Diet 11 (0.47% Ca) diet+AEK for 11 days, followed by Diet 11 (0.02% Ca)+AEK for 31 days. Dosing (i.p.) began 7 days prior to sacrifice. Doses were given on a daily basis, 24 hours apart. The first 10 cm of the intestine was collected for gut transport studies and serum was collected for bone Ca mobilization analysis.

[3] = test system: bone calcium mobilization; test: Serum calcium (bone calcium mobilization) in rats on low calcium diet; format: in vivo, Sprague-Dawley rats; conditions: for Serum Ca (mean ± SEM): daily for 7 days, male weanling rats, 0.02% Ca diet
Description: as §1

[4] = molecular target: T1, vitamin D pig intestinal nuclear receptor; test: Competitive binding of [3H]-1,25-(OH)2-D3 to the porcine intestinal vitamin D receptor
Description: FIG. 1 is a graph illustrating the relative activity of (20S)-1α-hydroxy-2-methylene-19-nor-vitamin D3 and 1α,25-dihydroxyvitamin D3 to compete for binding of [^3H]-1,25-(OH)2-D3 to the vitamin D pig intestinal nuclear receptor; and
Competitive binding of the analog to the porcine intestinal receptor was carried out by the method described by Dame et al. (Biochemistry 25, 4523-4534, 1986).

HL-60 cells = test: Differentiation of HL-60 promyelocytes into monocytes; format: cell-based; conditions: FIG. 2
Description: FIG. 2 is a graph illustrating the percent HL-60 cell differentiation as a function of the concentration of (20S)-1α-hydroxy-2-methylene-19-nor-vitamin D3 and of 1,25-dihydroxyvitamin D3
The differentiation of HL-60 promyelocytic into monocytes was determined as described by Ostrem et al (J. Biol. Chem. 262, 14164-14171, 1987).

| SMILES | decrease in binding activity resulting from lack of a 25-hydroxyl [1] [fold] | Ca transport S/M (mean ± SEM) ([2]; 260 pmol/day i.p.) | Serum Ca (mean ± SEM) ([3]; 260 pmol/day i.p.) | ability to bind the vitamin D receptor relative to 1,25-dihydroxyvitamin D3 ([4]; FIG. 1) | ability to bind the vitamin D receptor relative to 1,25-dihydroxyvitamin D3 ([4]; FIG. 1, listed as 2-Methylene-19-nor-(20S)-1α-hydroxyvitamin D3) | potency on HL-60 differentiation relative to 1,25-(OH)2D3 (HL-60 cells; listed as (20S)-1α-Hydroxy-2-methylene-19-nor-vitamin D3) | potency on HL-60 differentiation relative to 1,25-(OH)2D3 (HL-60 cells; listed as (20S)-1α-hydroxy-2-methylene-19-nor-vitamin D3) | Ca transport S/M (mean ± SEM) ([2]; 130 pmol/day i.p.) | activity in stimulating intestinal calcium transport relative to 1,25-(OH)2D3 ([2]; statement in words on Table 1) | Serum Ca (mean ± SEM) ([3]; 130 pmol/day i.p.) | bone calcium mobilization activity relative to 1,25-(OH)2D3 ([3]; statement in words on Table 1) |
| --- | --- | --- | --- | --- | --- | --- | --- | --- | --- | --- | --- |
| C=C1/C(=C\C=C2/CCC[C@]3(C)[C@@H]([C@H](C)CCCC(C)C)CC[C@@H]23)C[C@@H](O)C[C@@H]1O [1α-hydroxyvitamin D3] | 100 | – | – | – | – | – | – | – | – | – | – |
| C=C1/C(=C\C=C2/CCC[C@]3(C)[C@@H]([C@H](C)CCCC(C)(C)O)CC[C@@H]23)C[C@@H](O)C[C@@H]1O [1α,25-(OH)2D3, 1α,25-dihydroxyvitamin D3, reference compound] | – | 7.7 ± 0.52 | 6.25 ± 0.19 | – | – | – | – | – | – | – | – |
| C=C1[C@H](O)CC(=C/C=C2\CCC[C@@]3(C)C2CCC3[C@@H](C)CCCC(C)C)C[C@H]1O (stereo partly drawn) [(20S)-1α-(OH)-2-methylene-19-nor-D3, (20S)-1α-hydroxy-2-methylene-19-nor-vitamin D3] | – | 10.0 ± 0.59 | 12.60 ± 0.54 | only a little less activity than 1,25(OH)2D3 | only one-tenth that of 1,25-dihydroxyvitamin D3 | more active than 1,25-(OH)2D3 | more potent than 1,25-(OH)2D3 | 10.1 ± 0.68 | higher activity as compared to that of 1,25-(OH)2D3 | 9.63 ± 0.12 | higher bone calcium mobilization activity, as compared to 1,25-(OH)2D3 |
